Reference: ChEMBL document CHEMBL1157712, “Hit to lead account of the discovery of bisbenzamide and related ureidobenzamide inhibitors of Rho kinase” (J Med Chem, 2010)

How the values were obtained:
[1] = molecular target: Cytochrome P450 3A4 (Homo sapiens, UniProt P08684); test: Inhibition of human CYP3A4 by LCMS/MS assay; assay type: ADME
[2] = molecular target: Voltage-gated inwardly rectifying potassium channel KCNH2 (Homo sapiens, UniProt Q12809); test: Inhibition of human ERG potassium channel up to 70 uM
[3] = molecular target: Dual specificity mitogen-activated protein kinase kinase 1 (Homo sapiens) (UniProt Q02750); conditions: 3 to 6 uM
Description: Inhibition of MKK1 at 3 to 6 uM relative to control

[4] = molecular target: Myosin light chain kinase, smooth muscle (Homo sapiens) (UniProt Q15746); conditions: 3 to 6 uM
Description: Inhibition of SMMLCK at 3 to 6 uM relative to control

[5] = molecular target: T1, Serine/threonine-protein kinase PLK1 (Homo sapiens, UniProt P53350); test: Inhibition of PLK
T1 sequence (P53350 whole entry): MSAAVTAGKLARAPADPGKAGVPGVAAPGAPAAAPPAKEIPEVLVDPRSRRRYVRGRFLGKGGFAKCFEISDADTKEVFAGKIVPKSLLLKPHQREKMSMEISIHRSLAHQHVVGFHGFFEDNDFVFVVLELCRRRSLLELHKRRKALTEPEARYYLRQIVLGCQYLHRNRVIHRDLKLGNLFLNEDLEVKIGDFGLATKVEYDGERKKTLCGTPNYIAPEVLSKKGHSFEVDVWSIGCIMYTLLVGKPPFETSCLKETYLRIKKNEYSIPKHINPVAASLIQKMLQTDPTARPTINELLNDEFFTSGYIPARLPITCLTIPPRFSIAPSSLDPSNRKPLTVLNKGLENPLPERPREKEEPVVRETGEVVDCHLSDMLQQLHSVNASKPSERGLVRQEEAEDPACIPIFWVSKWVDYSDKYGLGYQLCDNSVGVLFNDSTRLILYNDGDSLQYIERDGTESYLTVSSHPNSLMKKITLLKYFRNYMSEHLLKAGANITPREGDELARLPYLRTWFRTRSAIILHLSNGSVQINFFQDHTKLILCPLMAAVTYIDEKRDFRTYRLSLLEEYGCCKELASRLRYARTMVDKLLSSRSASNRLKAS

[6] = molecular target: Tyrosine-protein kinase Lyn (Homo sapiens, UniProt P07948); test: Inhibition of LYN
[7] = molecular target: Serine/threonine-protein kinase 3 (Homo sapiens) (UniProt Q13188); conditions: 3 to 6 uM
Description: Inhibition of MST2 at 3 to 6 uM relative to control

[8] = molecular target: Tyrosine-protein kinase ITK/TSK (Homo sapiens, UniProt Q08881); test: Inhibition of ITK
[9] = molecular target: SRSF protein kinase 1 (Homo sapiens) (UniProt Q96SB4); conditions: 3 to 6 uM
Description: Inhibition of SRPK1 at 3 to 6 uM relative to control

[10] = molecular target: Receptor-interacting serine/threonine-protein kinase 4 (Homo sapiens) (UniProt P57078); conditions: 3 to 6 uM
Sequence of Receptor-interacting serine/threonine-protein kinase 4 (Homo sapiens) (P57078 whole entry): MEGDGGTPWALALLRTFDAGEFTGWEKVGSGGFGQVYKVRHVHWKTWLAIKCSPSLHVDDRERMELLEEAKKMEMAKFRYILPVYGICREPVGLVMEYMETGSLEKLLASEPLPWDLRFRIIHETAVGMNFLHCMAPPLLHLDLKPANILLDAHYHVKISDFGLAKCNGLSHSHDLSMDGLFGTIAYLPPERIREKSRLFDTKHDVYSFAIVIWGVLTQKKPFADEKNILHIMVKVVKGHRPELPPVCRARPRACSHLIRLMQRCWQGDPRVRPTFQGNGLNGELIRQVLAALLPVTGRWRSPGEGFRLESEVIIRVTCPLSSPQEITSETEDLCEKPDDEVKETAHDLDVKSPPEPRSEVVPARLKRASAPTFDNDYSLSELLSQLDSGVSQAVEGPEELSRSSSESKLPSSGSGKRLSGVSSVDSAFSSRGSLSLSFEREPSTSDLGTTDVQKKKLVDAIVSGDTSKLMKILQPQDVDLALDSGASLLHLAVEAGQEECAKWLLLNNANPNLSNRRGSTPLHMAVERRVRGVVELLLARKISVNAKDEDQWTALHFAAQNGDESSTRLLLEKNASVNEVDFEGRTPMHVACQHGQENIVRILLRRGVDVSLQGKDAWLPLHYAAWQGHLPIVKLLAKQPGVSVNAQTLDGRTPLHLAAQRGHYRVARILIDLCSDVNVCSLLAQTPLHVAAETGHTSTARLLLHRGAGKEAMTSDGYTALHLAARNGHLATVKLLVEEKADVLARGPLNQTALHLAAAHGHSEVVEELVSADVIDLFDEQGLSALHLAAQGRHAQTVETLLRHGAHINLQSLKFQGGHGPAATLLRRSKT
Description: Inhibition of ANKRD3 at 3 to 6 uM relative to control

[11] = molecular target: RAC-beta serine/threonine-protein kinase (Homo sapiens) (UniProt P31751); conditions: 3 to 6 uM
Description: Inhibition of PKBbeta at 3 to 6 uM relative to control

[12] = tested on: Caco-2; test: Permeability from apical to basolateral side in human Caco-2 cells; assay type: ADME, cell-based; conditions: caco-2, BLD = below limit of detection
[13] = molecular target: Calcium/calmodulin-dependent protein kinase type 1 (Homo sapiens) (UniProt Q14012); conditions: 3 to 6 uM
Sequence of Calcium/calmodulin-dependent protein kinase type 1 (Homo sapiens) (Q14012 whole entry, looked up): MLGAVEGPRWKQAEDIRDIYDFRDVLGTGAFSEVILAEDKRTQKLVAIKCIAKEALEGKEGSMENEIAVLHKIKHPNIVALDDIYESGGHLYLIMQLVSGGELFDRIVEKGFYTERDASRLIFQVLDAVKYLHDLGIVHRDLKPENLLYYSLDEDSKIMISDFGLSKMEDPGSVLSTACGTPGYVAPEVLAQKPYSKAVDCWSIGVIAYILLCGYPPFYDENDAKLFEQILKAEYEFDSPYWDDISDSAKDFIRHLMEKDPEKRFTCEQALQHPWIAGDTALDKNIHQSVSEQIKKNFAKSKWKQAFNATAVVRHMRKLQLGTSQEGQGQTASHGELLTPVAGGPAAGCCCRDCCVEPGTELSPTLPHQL
Description: Inhibition of CAMK1 at 3 to 6 uM relative to control

[14] = molecular target: MAP kinase-interacting serine/threonine-protein kinase 1 (Homo sapiens) (UniProt Q9BUB5); conditions: 3 to 6 uM
Description: Inhibition of MNK1 at 3 to 6 uM relative to control

[15] = molecular target: Cytochrome P450 2C9 (Homo sapiens, UniProt P11712); test: Inhibition of human CYP2C9 by fluorescence assay; assay type: ADME
[16] = molecular target: Dual specificity protein kinase CLK1 (Homo sapiens) (UniProt P49759); conditions: 3 to 6 uM
Description: Inhibition of CLK1 at 3 to 6 uM relative to control

[17] = molecular target: Death-associated protein kinase 1 (Homo sapiens) (UniProt P53355); conditions: 3 to 6 uM
Description: Inhibition of DAPK1 at 3 to 6 uM relative to control

[18] = Metabolic stability in human liver microsomes assessed as half life; assay type: ADME, Microsome
[19] = molecular target: T1, Serine/threonine-protein kinase PLK1; conditions: 3 to 6 uM
Description: Inhibition of PLK1 at 3 to 6 uM relative to control

[20] = molecular target: Ribosomal protein S6 kinase alpha-3 (Homo sapiens) (UniProt P51812); conditions: 3 to 6 uM
Description: Inhibition of RSK2 at 3 to 6 uM relative to control

[21] = molecular target: Protein kinase C alpha type (Homo sapiens) (UniProt P17252); conditions: 3 to 6 uM
Description: Inhibition of PKCalpha at 3 to 6 uM relative to control

[22] = molecular target: Mitogen-activated protein kinase kinase kinase 14 (Homo sapiens) (UniProt Q99558); conditions: 3 to 6 uM
Description: Inhibition of NIK at 3 to 6 uM relative to control

[23] = molecular target: Serine/threonine-protein kinase D1 (Homo sapiens) (UniProt Q15139); conditions: 3 to 6 uM
Description: Inhibition of PKD1 at 3 to 6 uM relative to control

[24] = molecular target: Aurora kinase B (Homo sapiens) (UniProt Q96GD4); conditions: 3 to 6 uM
Description: Inhibition of Aurora B at 3 to 6 uM relative to control

[25] = molecular target: Mitogen-activated protein kinase 15 (Homo sapiens) (UniProt Q8TD08); conditions: 3 to 6 uM
Sequence of Mitogen-activated protein kinase 15 (Homo sapiens) (Q8TD08 whole entry): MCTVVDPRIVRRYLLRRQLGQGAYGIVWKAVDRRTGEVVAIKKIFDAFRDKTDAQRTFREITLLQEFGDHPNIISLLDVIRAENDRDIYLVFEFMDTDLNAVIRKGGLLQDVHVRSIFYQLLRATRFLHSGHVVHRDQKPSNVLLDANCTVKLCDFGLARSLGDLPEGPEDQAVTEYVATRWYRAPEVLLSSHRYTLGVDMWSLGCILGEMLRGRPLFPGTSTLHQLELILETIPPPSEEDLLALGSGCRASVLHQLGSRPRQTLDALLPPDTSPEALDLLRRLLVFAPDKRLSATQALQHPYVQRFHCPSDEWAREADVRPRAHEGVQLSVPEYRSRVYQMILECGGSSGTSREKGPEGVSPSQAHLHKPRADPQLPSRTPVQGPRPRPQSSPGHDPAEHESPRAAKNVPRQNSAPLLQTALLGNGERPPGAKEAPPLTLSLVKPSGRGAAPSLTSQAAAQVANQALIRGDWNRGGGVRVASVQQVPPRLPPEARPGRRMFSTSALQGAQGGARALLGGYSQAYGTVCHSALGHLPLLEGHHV
Description: Inhibition of ERK8 at 3 to 6 uM relative to control

[26] = molecular target: Serine/threonine-protein kinase Chk2 (Homo sapiens) (UniProt O96017); conditions: 3 to 6 uM
Description: Inhibition of CHK2 at 3 to 6 uM relative to control

[27] = molecular target: Rho-associated protein kinase 2 (Homo sapiens, UniProt O75116)
Sequence of Rho-associated protein kinase 2 (O75116 whole entry): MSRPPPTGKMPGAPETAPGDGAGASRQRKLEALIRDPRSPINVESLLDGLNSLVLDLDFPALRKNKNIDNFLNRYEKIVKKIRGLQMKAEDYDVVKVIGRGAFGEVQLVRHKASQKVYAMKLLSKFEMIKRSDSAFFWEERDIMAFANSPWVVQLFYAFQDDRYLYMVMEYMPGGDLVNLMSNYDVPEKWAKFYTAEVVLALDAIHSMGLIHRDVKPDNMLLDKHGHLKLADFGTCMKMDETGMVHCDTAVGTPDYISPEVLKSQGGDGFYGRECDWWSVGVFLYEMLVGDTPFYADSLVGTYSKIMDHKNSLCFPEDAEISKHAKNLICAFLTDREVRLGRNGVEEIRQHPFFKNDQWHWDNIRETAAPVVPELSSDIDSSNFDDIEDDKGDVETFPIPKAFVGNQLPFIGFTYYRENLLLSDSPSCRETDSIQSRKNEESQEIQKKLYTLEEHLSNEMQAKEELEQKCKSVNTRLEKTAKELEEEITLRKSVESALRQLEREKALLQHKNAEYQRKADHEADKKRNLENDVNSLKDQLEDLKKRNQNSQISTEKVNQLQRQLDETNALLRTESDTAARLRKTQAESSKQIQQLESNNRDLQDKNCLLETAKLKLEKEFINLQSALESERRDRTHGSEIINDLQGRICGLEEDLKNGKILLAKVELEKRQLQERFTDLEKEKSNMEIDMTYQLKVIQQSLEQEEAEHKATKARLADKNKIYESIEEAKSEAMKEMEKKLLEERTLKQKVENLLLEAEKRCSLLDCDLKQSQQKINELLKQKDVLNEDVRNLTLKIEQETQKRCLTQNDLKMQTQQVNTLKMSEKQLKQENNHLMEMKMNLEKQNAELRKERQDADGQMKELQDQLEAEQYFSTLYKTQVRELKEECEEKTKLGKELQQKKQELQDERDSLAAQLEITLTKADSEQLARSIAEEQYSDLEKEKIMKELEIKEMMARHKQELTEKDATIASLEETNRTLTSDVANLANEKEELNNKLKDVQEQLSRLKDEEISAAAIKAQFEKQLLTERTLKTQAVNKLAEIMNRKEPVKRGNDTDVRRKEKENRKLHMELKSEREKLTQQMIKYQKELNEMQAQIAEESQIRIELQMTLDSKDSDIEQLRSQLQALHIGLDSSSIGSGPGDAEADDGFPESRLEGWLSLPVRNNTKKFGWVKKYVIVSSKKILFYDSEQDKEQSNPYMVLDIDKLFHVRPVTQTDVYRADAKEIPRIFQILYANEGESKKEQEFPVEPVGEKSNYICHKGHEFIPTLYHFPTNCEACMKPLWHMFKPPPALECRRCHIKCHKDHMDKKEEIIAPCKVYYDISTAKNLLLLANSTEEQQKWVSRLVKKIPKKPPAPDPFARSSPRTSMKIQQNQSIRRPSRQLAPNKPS
Description: Inhibition of human ROCK2 by homogenous luciferase assay

[28] = molecular target: cGMP-dependent protein kinase 1 (Homo sapiens, UniProt Q13976); test: Inhibition of PRKG1
Sequence of cGMP-dependent protein kinase 1 (Q13976 whole entry): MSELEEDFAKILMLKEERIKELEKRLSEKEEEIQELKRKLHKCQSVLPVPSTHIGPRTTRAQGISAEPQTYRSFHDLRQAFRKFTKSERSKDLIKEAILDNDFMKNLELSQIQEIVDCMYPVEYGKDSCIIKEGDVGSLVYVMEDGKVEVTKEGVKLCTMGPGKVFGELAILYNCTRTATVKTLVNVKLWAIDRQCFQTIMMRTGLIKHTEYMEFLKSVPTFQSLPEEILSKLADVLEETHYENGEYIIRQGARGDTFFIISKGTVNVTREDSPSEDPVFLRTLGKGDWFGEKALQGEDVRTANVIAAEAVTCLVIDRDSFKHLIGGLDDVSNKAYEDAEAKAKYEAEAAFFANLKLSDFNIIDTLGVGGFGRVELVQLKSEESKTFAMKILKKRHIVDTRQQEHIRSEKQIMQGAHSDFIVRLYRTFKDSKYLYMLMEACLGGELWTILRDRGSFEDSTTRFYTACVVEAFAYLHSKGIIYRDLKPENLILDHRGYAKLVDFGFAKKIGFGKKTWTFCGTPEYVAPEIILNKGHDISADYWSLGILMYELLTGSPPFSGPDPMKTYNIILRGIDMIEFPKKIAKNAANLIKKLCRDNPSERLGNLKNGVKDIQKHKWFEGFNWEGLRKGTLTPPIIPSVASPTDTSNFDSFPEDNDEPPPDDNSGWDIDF

[29] = molecular target: Mitogen-activated protein kinase 1 (Homo sapiens) (UniProt P28482); conditions: 3 to 6 uM
Sequence of Mitogen-activated protein kinase 1 (Homo sapiens) (P28482 whole entry): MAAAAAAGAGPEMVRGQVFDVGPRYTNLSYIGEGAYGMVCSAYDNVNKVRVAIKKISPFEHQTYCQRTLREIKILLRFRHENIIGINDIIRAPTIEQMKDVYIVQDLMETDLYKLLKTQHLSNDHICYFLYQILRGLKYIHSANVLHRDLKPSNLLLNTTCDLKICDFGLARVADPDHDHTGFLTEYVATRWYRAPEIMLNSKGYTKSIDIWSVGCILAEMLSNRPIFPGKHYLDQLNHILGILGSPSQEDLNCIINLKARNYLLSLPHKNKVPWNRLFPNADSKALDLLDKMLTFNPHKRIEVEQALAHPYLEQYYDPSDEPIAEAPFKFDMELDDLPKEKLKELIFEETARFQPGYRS
Description: Inhibition of MAPK2 at 3 to 6 uM relative to control

[30] = species: Rattus norvegicus; test: Induction of relaxation activity of phenylephrine-induced Sprague-Dawley rat aortic ring contraction; assay type: functional; conditions: Aorta
[31] = molecular target: MAP kinase-interacting serine/threonine-protein kinase 2 (Homo sapiens) (UniProt Q9HBH9); conditions: 3 to 6 uM
Description: Inhibition of MNK2 at 3 to 6 uM relative to control

[32] = Inhibition of AMPK at 3 uM relative to control; values are per cent of control
[33] = molecular target: Mitogen-activated protein kinase 15 (Homo sapiens) (UniProt Q8TD08); test: Inhibition of ERK8 at 3 uM relative to control; values are per cent of control
[34] = molecular target: Eukaryotic elongation factor 2 kinase (Homo sapiens) (UniProt O00418); test: Inhibition of EF2K at 3 uM relative to control; values are per cent of control
[35] = molecular target: T1, Serine/threonine-protein kinase PLK1; test: Inhibition of PLK1 at 3 uM relative to control; values are per cent of control
[36] = tested on: ROCK1 (Homo sapiens); test: Inhibition of ROCK1
[37] = molecular target: T2, Serine/threonine-protein kinase N2 (Homo sapiens, UniProt Q16513)
[38] = molecular target: Serine/threonine-protein kinase Sgk1 (Homo sapiens) (UniProt O00141); test: Inhibition of SGK at 3 uM relative to control; values are per cent of control
[39] = molecular target: Ribosomal protein S6 kinase beta-1 (Homo sapiens) (UniProt P23443); test: Inhibition of S6K1 at 3 uM relative to control; values are per cent of control
[40] = Inhibition of SAPK2a at 3 uM relative to control; values are per cent of control
[41] = molecular target: Mitogen-activated protein kinase 8 (Homo sapiens) (UniProt P45983); test: Inhibition of JNK1a1 at 3 uM relative to control; values are per cent of control
[42] = molecular target: Serine/threonine-protein kinase Chk1 (Homo sapiens) (UniProt O14757); test: Inhibition of CHK1 at 3 uM relative to control; values are per cent of control
[43] = molecular target: T2, Serine/threonine-protein kinase N2; test: Inhibition of PRK2; values are per cent of control

SMILES: COc1ccc(C(=O)NCc2cccc(C(=O)Nc3ccc4c(c3)CNCC4)c2)cc1OC
- IC50 [1]: > 30 µM
- inhibition (INH) [2]: Not Active
- residual activity [3]: > 50%
- residual activity [4]: > 50%
- IC50 [5]: > 10 µM
- IC50 [6]: > 10 µM
- residual activity [7]: > 50%
- IC50 [8]: > 10 µM
- residual activity [9]: > 50%
- residual activity [10]: > 50%
- residual activity [11]: > 50%
- permeability [12]: BLD
- residual activity [13]: > 50%
- residual activity [14]: > 50%
- IC50 [15]: > 30 µM
- residual activity [16]: > 50%
- residual activity [17]: > 50%
- half-life [18]: 2.43 h
- residual activity [19]: > 50%
- residual activity [20]: > 50%
- residual activity [21]: > 50%
- residual activity [22]: > 50%
- residual activity [23]: > 50%
- residual activity [24]: > 50%
- residual activity [25]: > 50%
- residual activity [26]: > 50%
- IC50 [27]: 0.033 µM
- IC50 [28]: 5.6 µM
- residual activity [29]: > 50%
- IC50 [30]: 6.4 µM
- residual activity [31]: > 50%

SMILES: NC(=O)c1ccc(NC(=O)NCc2cccc(C(=O)Nc3ccc4c(c3)CNCC4)c2)cc1
- residual activity [32]: > 50%
- residual activity [33]: > 50%
- residual activity [34]: > 50%
- residual activity [35]: > 50%
- IC50 [36]: 0.006 µM
- IC50 [37]: 0.77 µM
- residual activity [38]: > 50%
- residual activity [39]: > 50%
- residual activity [40]: > 50%
- residual activity [41]: > 50%
- residual activity [42]: > 50%
- residual activity [43]: 33%
- IC50 [27]: 0.004 µM
- IC50 [28]: 3 µM
